The source of these data is US5461036A, “Spicamycin derivatives and their use as anticancer agents” (priority 1991, dated 1995).

The term LD50 denotes the dose at which mortality reaches 50%. A higher LD50 goes with a less toxic substance.

Read-outs that look alike come from different tables or passages of the source.

The subject of one series is nude mice. In words: in vivo. Set-up: species or system nude mice (BALB/c nu/nu). To be noted: intravenous, continuous 5 days, maximum dose at which no animal was dead within 2 weeks, 20160 min. The procedure: (§1) (1) Measurement of maximum tolerated dose (MTD) of the spicamycin derivatives in nude mice
(§2) The spicamycin derivative was dissolved in dimethylsulfoxide (DMSO) and Cremophor EL® at the same volume as DMSO was added. Physiological saline was added so that the concentration of DMSO and Cremophor EL® was finally adjusted to 1%, respectively, and thus injection liquids of spicamycin derivative in a variety of concentrations were prepared. […] The maximum dose at which no animal was dead was defined as the MTD of the respective derivatives.

Series [1] deals with human colon cancer (COL-1). In kind it is in vivo, mouse. The protocol: (2) Method for measuring the antitumor effect on human colon cancer (COL-1)
COL-1, a human colon cancer, was transplanted subcutaneously into nude mice. When the tumor had grown to a volume of about 100 mm^3, the nude mice were divided into groups of 5 animals so that the average tumor volumes of respective groups were equalized. The respective spicamycin derivatives were administered to test groups at their MTDs, while physiological saline (solvent) containing 1% DMSO and 1% Cremophor EL® was administered to the control group. […] RV is expressed as RV =Vn/Vo where Vn is the tumor volume on day n and Vo is the initial tumor volume at the time treatment was commenced.

Another series can be described thus: Acute toxicity (LD50). The following applies: mouse, in vivo; intravenous, ICR mice (female, 6 weeks old), 14 days observation, Litchfield and Wilcoxon. An excerpt:
The LD50 was obtained from the mortalities at the respective dosage groups by the Litchfield and Wilcoxon's method.

Another series can be described thus: in vivo. To be noted: mouse, in vivo; intravenous, continuous 5 days, nude mice; maximum dose at which no animal was dead within 2 weeks; read-out: Maximum tolerated dose. Set-up: species or system nude mice (BALB/c nu/nu). The procedure:
as §1, §2

The next series deals with L1210 mouse leukemia. The following applies: in vivo; cited from earlier work.
In another series the test system is Walker 256 rat sarcoma. To be noted: in vivo; cited from earlier work.
The mark [2] stands for this setting: /minimum effective dose (effective: TGIR≥50).
The mark [3] stands for this setting: COL-1 s.c. in nude mice, at MTD, TGIR=(1-Tx/Cx)×100, maximum during about 3 weeks.
[4] abbreviates: COL-1 s.c. in nude mice, at MTD, minimum throughout the test period.

With `CCCCCCCCC/C=C/C=C/C(=O)NCC(=O)N[C@@H]1[C@@H](O)[C@@H](O)[C@@H](Nc2ncnc3[nH]cnc23)O[C@H]1C(O)CO` (stereo partly drawn) [SPK241, 6-[4'-N-(N'-trans,trans-2,4-tetradecadienoylglycyl)spicaminyl-amino]purine], the Maximum tolerated dose in the series with nude mice turned out to be 6 mg/kg/day. The compound also had a Therapeutic index in series [1] (setting [2]) of 16. Further, in series [1] (in vivo, sc), the “TGIR (tumor growth inhibition rate, maximum)” value was determined as 97 and the “minTx (relative tumor volume when reduced to the minimum)” value worked out at 0.14. In the series “Acute toxicity (LD50)”, this compound returned an LD50 at 336 h of 110 mg/kg.

Turning to `O=C(CCCCCCCCCCCCCl)NCC(=O)N[C@@H]1[C@@H](O)[C@@H](O)[C@@H](Nc2ncnc3[nH]cnc23)O[C@H]1C(O)CO` (stereo partly shown) [SPK278, 6-[4'-N-(N'-13-chlorotridecanoylglycyl)spicaminyl-amino]purine], the MTD at 336 h in “in vivo” amounted to 12 mg/kg/day. For the same compound, in series [1] (setting [3]), the “TGIR (tumor growth inhibition rate, maximum)” value is on record as 92. Further, in series [1] (setting [4]), the “minTx (relative tumor volume when reduced to the minimum)” value is listed as 0.21. The compound also had a Therapeutic index in series [1] (mouse, in vivo) of 8.

`O=C(CCCCCCCCCCCCCF)NCC(=O)N[C@@H]1[C@@H](O)[C@@H](O)[C@@H](Nc2ncnc3[nH]cnc23)O[C@H]1C(O)CO` (stereo partly shown) [SPK279, 6-[4,-N-(N,-14-fluorotetradecanoylglycyl)spicaminyl-amino]purine]: the MTD at 336 h in the series “in vivo” amounted to 6 mg/kg/day. Further, the “TGIR (tumor growth inhibition rate, maximum)” value in series [1] (setting [3]) was 93. Besides, the “minTx (relative tumor volume when reduced to the minimum)” value in series [1] (setting [4]) is 0.25. In series [1] (mouse, in vivo), the Therapeutic index was determined as 8.

Take `O=C(CCCCCCCCCCCCCCl)NCC(=O)N[C@@H]1[C@@H](O)[C@@H](O)[C@@H](Nc2ncnc3[nH]cnc23)O[C@H]1C(O)CO` (stereo partly shown) [SPK280, 6-[4'-N-(N'-14-chlorotetradecanoylglycyl)spicaminyl-amino]purine]: the MTD at 336 h in “in vivo” was determined as 9 mg/kg/day. The “TGIR (tumor growth inhibition rate, maximum)” value in series [1] (setting [3]) is 94. In addition, the “minTx (relative tumor volume when reduced to the minimum)” value in series [1] (setting [4]) is on record as 0.19. The compound also returned a Therapeutic index in series [1] (mouse, in vivo) of 8.

In the case of `CCCCCCCC/C=C/C=C/C(=O)NCC(=O)N[C@@H]1[C@@H](O)[C@@H](O)[C@@H](Nc2ncnc3[nH]cnc23)O[C@H]1C(O)CO` (stereo partly drawn) [SPK281, 6-[4'-N-(N'-trans,trans-2,4-tridecadienoylglycyl)spicaminyl-amino]purine], the MTD at 336 h in “in vivo” was 18 mg/kg/day. Also, in series [1] (setting [3]), the “TGIR (tumor growth inhibition rate, maximum)” value is 99. In series [1] (setting [4]), the “minTx (relative tumor volume when reduced to the minimum)” value is reported as 0.06. The same compound displayed a Therapeutic index in series [1] (mouse, in vivo) of 8.

Turning to `CCCCCCC/C=C/C=C/C(=O)NCC(=O)N[C@@H]1[C@@H](O)[C@@H](O)[C@@H](Nc2ncnc3[nH]cnc23)O[C@H]1C(O)CO` (stereo partly drawn) [SPK282, 6-[4'-N-(N'-trans,trans-2,4-dodecadienoylglycyl)spicaminyl-amino]purine], in the series “in vivo”, the MTD at 336 h was determined as 36 mg/kg/day. The “TGIR (tumor growth inhibition rate, maximum)” value in series [1] (setting [3]) is on record as 99. The “minTx (relative tumor volume when reduced to the minimum)” value in series [1] (setting [4]) amounted to 0.07. For the same compound, the Therapeutic index in series [1] (mouse, in vivo) is on record as 16.

Consider `O=C(CCCCCCCCCCOc1ccccc1)NCC(=O)NC1C(O)C(O)C(Nc2ncnc3[nH]cnc23)OC1C(O)CO` (stereo not shown) [SPK422, 6-[4'-N-(N'-11-phenoxyundecanoylglycyl)-spicaminyl-amino]purine], for which the MTD at 336 h in “in vivo” was determined as 3.4 mg/kg/day. Besides, in series [1] (setting [3]), the “TGIR (tumor growth inhibition rate, maximum)” value amounted to 95. In addition, the Therapeutic index in series [1] (mouse, in vivo) is on record as 4.

For `CCCCCCCCCCCC(=O)NCC(=O)NC1C(O)C(O)C(Nc2ncnc3[nH]cnc23)OC1C(O)CO` (stereo not shown) [SPM8, reference compound], the MTD at 336 h in the series “in vivo” amounted to 10.4 mg/kg/day. Besides, in series [1] (setting [3]), the “TGIR (tumor growth inhibition rate, maximum)” value is recorded as 94. Besides, the “minTx (relative tumor volume when reduced to the minimum)” value in series [1] (setting [4]) came to 0.19. Also, in series [1] (mouse, in vivo), the Therapeutic index is recorded as 4.

In the case of `CCCCCCCCCCCCC(=O)NCC(=O)N[C@@H]1[C@@H](O)[C@@H](O)[C@@H](Nc2ncnc3[nH]cnc23)O[C@H]1C(O)CO` (stereo partly shown) [SPM9, 6-[4 '-N-(N'-tridecanoylglycyl)spicaminyl-amino]purine], in “in vivo”, the MTD at 336 h came to 3.4 mg/kg/day. Further, in series [1] (setting [3]), the “TGIR (tumor growth inhibition rate, maximum)” value worked out at 99. Also, in series [1] (setting [4]), the “minTx (relative tumor volume when reduced to the minimum)” value turned out to be 0.05. Also, the Therapeutic index in series [1] (mouse, in vivo) is reported as 6.

For the compound `CCCCCCCCCCCCCC(=O)NCC(=O)N[C@@H]1[C@@H](O)[C@@H](O)[C@@H](Nc2ncnc3[nH]cnc23)O[C@H]1C(O)CO` (stereo partly shown) [SPM10, 6-[4 ,-N-(N'-tetradecanoylglycyl)spicaminyl-amino]purine], the MTD at 336 h in “in vivo” was found to be 2.6 mg/kg/day. For the same compound, in series [1] (setting [2]), the Therapeutic index is 4. The “TGIR (tumor growth inhibition rate, maximum)” value in series [1] (setting [3]) is 98. Moreover, in series [1] (setting [4]), the “minTx (relative tumor volume when reduced to the minimum)” value is given as 0.10.

Consider `CCCCCCCCC/C=C/C=C/C(=O)NCC(=O)NC1C(O)C(O)C(Nc2ncnc3[nH]cnc23)OC1C(O)CO` (stereo not drawn) [SPT241, 6-[4 -N-(N'-trans,trans-2,4-tetradecadienylglycyl)-septaminyl-amino]purine], for which the MTD at 336 h in “in vivo” amounted to 3 mg/kg/day. Further, the “TGIR (tumor growth inhibition rate, maximum)” value in series [1] (setting [3]) turned out to be 93. Also, the “minTx (relative tumor volume when reduced to the minimum)” value in series [1] (setting [4]) is listed as 0.24. In series [1] (mouse, in vivo), this compound registered a Therapeutic index of 8.

On to `CC(C)CCCCCCCCCCCCC(=O)NCC(=O)NC1C(O)C(O)C(Nc2ncnc3nc[nH]c23)OC1C(O)CO` (stereo not shown) [septacidin], for which the “antitumor activity against L1210 mouse leukemia” value in the series on L1210 mouse leukemia is recorded as “no antitumor activity”. Besides, the “antitumor activity against Walker 256 rat sarcoma” value in the series with Walker 256 rat sarcoma was “no antitumor activity”.
